For experiment [1], the system named is Pyricularia oryzae. The experiment in a line: Antifungal activity against Magnaporthe oryzae assessed as radial growth inhibition at 100 ppm. The experiment is classed as functional, organism-based.
Experiment [2] relates to Pyricularia oryzae. As to the kind of experiment: Antifungal activity against Magnaporthe oryzae assessed as inhibition of spore germination. Type of experiment: functional.
For experiment [3], the system named is Microdochium sorghi. The experiment in a line: Antifungal activity against Gloeocercospora sorghi in potato dextrose agar medium assessed as inhibition of radial growth. Type of experiment: functional.
In experiment [4] the test system is Microdochium sorghi. The experiment in a line: Antifungal activity against Gloeocercospora sorghi in potato dextrose agar medium assessed as inhibition of radial growth at 100 ppm. Type of experiment: functional.
In experiment [5] the test system is Pyricularia oryzae. The experiment in a line: Antifungal activity against Magnaporthe oryzae assessed as inhibition of spore germination at 100 ppm. The experiment is classed as functional, organism-based.

The record followed here is ChEMBL document CHEMBL3046045, “Synthesis of 7-methoxyapigeninidin and its fungicidal activity against Gloeocercospora sorghi” (1996).

Active and inactive are the calls of the source. The rule behind the calls is not given here.

With `COc1cc(O)c2ccc(-c3ccc(O)cc3)[o+]c2c1.[Cl-]` [7-METHOXYAPIGENINIDIN], in experiment [1], the inhibition – broadly, the relative decrease from the control value, in per cent – was “inactive”. The I50 in experiment [2] and in experiment [3] was 50 ppm in each case.

Turning to `Oc1ccc(-c2ccc3c(O)cc(O)cc3[o+]2)cc1` [APIGENIDIN], in experiment [4], the inhibition at 100 ppm amounted to 25%. Moreover, the inhibition entry in experiment [1] and in experiment [5] was “inactive” each time.
